# Calls of active or inactive are those of the source. No cut-off for these calls is given here.
# What was measured:
# [1] = Inhibition of Escherichia coli beta-lactamase VIM-2 using nitrocefin chromogenic substrate measured after 15 to 60 min at 25 degC by microplate reader
# [2] = test system: Enterobacter cloacae; experiment: Inhibition of Metallo-beta-lactamase IMP-1 in Enterobacter cloacae clinical isolate assessed as fold reduction in meropenem MIC at 32 ug/ml; details: dose 32.0 µg/ml
# [3] = test system: Escherichia coli; experiment: Inhibition of Metallo-beta-lactamase NDM-1 in Escherichia coli clinical isolate assessed as MIC for meropenem antibacterial activity at 64 ug/ml (reference value: 64 ug/ml); details: dose 64.0 µg/ml
# [4] = test system: Klebsiella pneumoniae; experiment: Substrate activity at Klebsiella pneumoniae beta-lactamase IMP-28 assessed as compound hydrolysis by measuring Kcat/Km by Michaelis-Menten analysis
# [5] = test system: Enterobacter cloacae; experiment: Inhibition of Metallo-beta-lactamase IMP-1 in Enterobacter cloacae clinical isolate assessed as fold reduction in meropenem MIC at 64 ug/ml; details: dose 64.0 µg/ml
# [6] = test system: Klebsiella pneumoniae; experiment: Inhibition of Metallo-beta-lactamase IMP-28 in Klebsiella pneumoniae clinical isolate assessed as MIC for meropenem antibacterial activity at 64 ug/ml (reference value: 4 ug/ml); details: dose 64.0 µg/ml
# [7] = test system: Escherichia coli; experiment: Antibacterial activity against beta-lactamase NDM1 producing Escherichia coli clinical isolate measured upto 128 ug/ml; format: functional, organism-based
# [8] = test system: Escherichia coli; experiment: Inhibition of Metallo-beta-lactamase NDM-1 in Escherichia coli clinical isolate assessed as MIC for meropenem antibacterial activity at 32 ug/ml (reference value: 64 ug/ml); details: dose 32.0 µg/ml
# [9] = test system: Enterobacter cloacae; experiment: Inhibition of Metallo-beta-lactamase IMP-1 in Enterobacter cloacae clinical isolate assessed as MIC for meropenem antibacterial activity at 128 ug/ml (Rvb =16 ug/ml); details: dose 128.0 µg/ml
# [10] = test system: Klebsiella pneumoniae; experiment: Inhibition of Metallo-beta-lactamase IMP-28 in Klebsiella pneumoniae clinical isolate assessed as MIC for meropenem antibacterial activity at 32 ug/ml (reference value: 4 ug/ml); details: dose 32.0 µg/ml
# [11] = Inhibition of Enterobacter cloacae IMP-1 using nitrocefin chromogenic substrate measured after 15 to 60 min at 25 degC by microplate reader
# [12] = Stability of the compound in Muller hinton broth assessed compound remaining measured after 15 hrs by HPLC analysis; format: physicochemical; details: Mueller Hinton broth, read-out: Stability
# [13] = test system: Escherichia coli; experiment: Inhibition of Metallo-beta-lactamase NDM-1 in Escherichia coli clinical isolate assessed as MIC for meropenem antibacterial activity at 128 ug/ml (reference value: 64 ug/ml); details: dose 128.0 µg/ml
# [14] = test system: Escherichia coli; experiment: Inhibition of Metallo-beta-lactamase VIM-2 in Escherichia coli clinical isolate assessed as fold reduction in meropenem MIC at 32 ug/ml; details: dose 32.0 µg/ml
# [15] = test system: Klebsiella pneumoniae; experiment: Inhibition of Metallo-beta-lactamase IMP-28 in Klebsiella pneumoniae clinical isolate assessed as fold reduction in meropenem MIC at 32 ug/ml; details: dose 32.0 µg/ml
# [16] = test system: Enterobacter cloacae; experiment: Inhibition of Metallo-beta-lactamase IMP-1 in Enterobacter cloacae clinical isolate assessed as fold reduction in meropenem MIC at 128 ug/ml; details: dose 128.0 µg/ml
# [17] = Inhibition of Klebsiella pneumoniae beta-lactamase IMP-28 using nitrocefin chromogenic substrate measured after 15 to 60 min at 25 degC by microplate reader
# [18] = test system: Klebsiella pneumoniae; experiment: Antibacterial activity against beta-lactamase IMP-28 producing Klebsiella pneumoniae clinical isolate measured upto 128 ug/ml; format: functional, organism-based
# [19] = test system: Escherichia coli; experiment: Inhibition of Metallo-beta-lactamase VIM-2 in Escherichia coli clinical isolate assessed as MIC for meropenem antibacterial activity at 128 ug/ml (reference value: 8 ug/ml); details: dose 128.0 µg/ml
# [20] = test system: Enterobacter cloacae; experiment: Inhibition of Metallo-beta-lactamase IMP-1 in Enterobacter cloacae clinical isolate assessed as MIC for meropenem antibacterial activity at 32 ug/ml (Rvb =16 ug/ml); details: dose 32.0 µg/ml
# [21] = test system: Klebsiella pneumoniae; experiment: Substrate activity at Klebsiella pneumoniae beta-lactamase IMP-28 assessed as compound hydrolysis by measuring Km by Michaelis-Menten analysis
# [22] = test system: Escherichia coli; experiment: Inhibition of Metallo-beta-lactamase VIM-2 in Escherichia coli clinical isolate assessed as MIC for meropenem antibacterial activity at 64 ug/ml (reference value: 8 ug/ml); details: dose 64.0 µg/ml
# [23] = test system: Klebsiella pneumoniae; experiment: Inhibition of Metallo-beta-lactamase IMP-28 in Klebsiella pneumoniae clinical isolate assessed as fold reduction in meropenem MIC at 128 ug/ml; details: dose 128.0 µg/ml
# [24] = test system: Escherichia coli; experiment: Antibacterial activity against beta-lactamase VIM2 producing Escherichia coli clinical isolate measured upto 128 ug/ml; format: functional, organism-based
# [25] = test system: Enterobacter cloacae; experiment: Inhibition of Metallo-beta-lactamase IMP-1 in Enterobacter cloacae clinical isolate assessed as MIC for meropenem antibacterial activity at 64 ug/ml (Rvb =16 ug/ml); details: dose 64.0 µg/ml
# [26] = test system: Klebsiella pneumoniae; experiment: Inhibition of Metallo-beta-lactamase IMP-28 in Klebsiella pneumoniae clinical isolate assessed as fold reduction in meropenem MIC at 64 ug/ml; details: dose 64.0 µg/ml
# [27] = test system: Escherichia coli; experiment: Inhibition of Metallo-beta-lactamase NDM-1 in Escherichia coli clinical isolate assessed as fold reduction in meropenem MIC at 32 ug/ml; details: dose 32.0 µg/ml
# [28] = test system: Escherichia coli; experiment: Inhibition of Metallo-beta-lactamase NDM-1 in Escherichia coli clinical isolate assessed as fold reduction in meropenem MIC at 128 ug/ml; details: dose 128.0 µg/ml
# [29] = test system: Klebsiella pneumoniae; experiment: Inhibition of Metallo-beta-lactamase IMP-28 in Klebsiella pneumoniae clinical isolate assessed as MIC for meropenem antibacterial activity at 128 ug/ml (reference value: 4 ug/ml); details: dose 128.0 µg/ml
# [30] = test system: Escherichia coli; experiment: Inhibition of Metallo-beta-lactamase VIM-2 in Escherichia coli clinical isolate assessed as fold reduction in meropenem MIC at 128 ug/ml; details: dose 128.0 µg/ml
# [31] = test system: Klebsiella pneumoniae; experiment: Substrate activity at Klebsiella pneumoniae beta-lactamase IMP-28 assessed as compound hydrolysis by measuring Kcat by Michaelis-Menten analysis
# [32] = test system: Escherichia coli; experiment: Inhibition of Metallo-beta-lactamase NDM-1 in Escherichia coli clinical isolate assessed as fold reduction in meropenem MIC at 64 ug/ml; details: dose 64.0 µg/ml
# [33] = test system: Enterobacter cloacae; experiment: Antibacterial activity against beta-lactamase IMP1 producing Enterobacter cloacae clinical isolate measured upto 128 ug/ml; format: functional, organism-based
# [34] = test system: Escherichia coli; experiment: Inhibition of Metallo-beta-lactamase VIM-2 in Escherichia coli clinical isolate assessed as MIC for meropenem antibacterial activity at 32 ug/ml (reference value: 8 ug/ml); details: dose 32.0 µg/ml
# [35] = test system: Escherichia coli; experiment: Inhibition of Metallo-beta-lactamase VIM-2 in Escherichia coli clinical isolate assessed as fold reduction in meropenem MIC at 64 ug/ml; details: dose 64.0 µg/ml
# [36] = Inhibition of Escherichia coli beta-lactamase NDM-1 using nitrocefin chromogenic substrate measured after 15 to 60 min at 25 degC by microplate reader
structure (smiles),measurement,setting,value
O=C(Cc1ccccc1)N[C@@H]1C(=O)N2C(C(=O)O)=C(CS[C@@H](Cc3ccccc3)C(=O)O)CS[C@H]12,IC50,[1],19 µM
same,fold change (FC),[2],2
same,MIC,[3],32 µg/mL
same,kcat/Km,[4],0.234 µM⁻¹ s⁻¹
same,fold change (FC),[5],2
same,MIC,[6],0.5 µg/mL
same,Activity,[7],inactive
same,MIC,[8],32 µg/mL
same,MIC,[9],4 µg/mL
same,MIC,[10],1 µg/mL
same,IC50,[11],48 µM
same,remaining at 15 h,[12],> 95%
same,MIC,[13],16 µg/mL
same,fold change (FC),[14],1
same,fold change (FC),[15],4
same,fold change (FC),[16],4
same,IC50,[17],30 µM
same,Activity,[18],inactive
same,MIC,[19],4 µg/mL
same,MIC,[20],8 µg/mL
same,Km,[21],175 µM
same,MIC,[22],8 µg/mL
same,fold change (FC),[23],16
same,Activity,[24],inactive
same,MIC,[25],8 µg/mL
same,fold change (FC),[26],8
same,fold change (FC),[27],2
same,fold change (FC),[28],4
same,MIC,[29],0.25 µg/mL
same,fold change (FC),[30],2
same,kcat,[31],41 s⁻¹
same,fold change (FC),[32],2
same,Activity,[33],inactive
same,MIC,[34],8 µg/mL
same,fold change (FC),[35],1
same,IC50,[36],51 µM
